Test results: patent publication US20090275594A1, “3-HYDRAZONE PIPERAZINYL RIFAMYCIN DERIVATIVES USEFUL AS ANTIMICROBIAL AGENTS” (priority 2008, published 2009)
In brackets after ≈: the same amount, converted by molar mass.

Tests used:
Format in all cases: cell-based
Conditions in all cases: cation adjusted Mueller-Hinton broth, 35° C., 16-20 hours
[1] = tested on: Enterococcus faecium OC 3312 vancomycin-resistant; assay: In vitro antibacterial activity, microdilution broth MIC (NCCLS M7-A4), strain A
Procedure: (§1) Minimum inhibitory concentration (MIC) is an indicator of in vitro antibacterial activity. […] The in vitro antimicrobial activity of representative compounds of the present invention was determined by the microdilution broth method following the test method from the National Committee for Clinical Laboratory Standards (NCCLS). This method is described in the NCCLS Document M7-A4, Vol. 17, No. 2, “Methods for Dilution Antimicrobial Susceptibility Test for Bacteria that Grow Aerobically—Fourth Edition”, which is incorporated herein by reference.
(§2) In this method two-fold serial dilutions of drug in cation adjusted Mueller-Hinton broth were added to wells in microdilution trays. The test organisms were prepared by adjusting the turbidity of actively growing broth cultures so that the final concentration of test organism after it is added to the wells was approximately 5×10^4 CFU/well. Following inoculation of the microdilution trays, the trays were incubated at 35° C. for 16-20 hours and then read. The amount of growth in the wells containing the test compound was compared with the amount of growth in the growth-control wells (no test compound) used in each tray.

[2] = tested on: Staphylococcus aureus OC4172; assay: In vitro antibacterial activity, microdilution broth MIC (NCCLS M7-A4), strain D
Procedure: as §1, §2

[3] = tested on: Methicillin-resistant Staphylococcus aureus OC 3726 COL; assay: In vitro antibacterial activity, microdilution broth MIC (NCCLS M7-A4), strain C
Procedure: as §1, §2

[4] = tested on: Staphylococcus aureus ATCC 29213; assay: In vitro antibacterial activity, microdilution broth MIC (NCCLS M7-A4), strain B
Procedure: as §1, §2

SMILES	MIC (μg/mL) A Strain [1]	MIC (μg/mL) D Strain [2]	MIC (μg/mL) C Strain [3]	MIC (μg/mL) B Strain [4]
COC1C=COC2(C)Oc3c(C)c(O)c4c(O)c(c(C=NN5CCN(CCc6cc(-c7ccc(Cl)cc7)no6)CC5)c(O)c4c3C2=O)NC(=O)C(C)=CC=CC(C)C(O)C(C)C(O)C(C)C(OC(C)=O)C1C (centres unmarked) [Compound 26]	0.5 µg/mL (≈ 0.493 µM)	0.25 µg/mL (≈ 0.246 µM)	0.25 µg/mL (≈ 0.246 µM)	0.5 µg/mL (≈ 0.493 µM)
COC1C=COC2(C)Oc3c(C)c(O)c4c(O)c(c(C=NN5CCN(Cc6cc(-c7ccc(C(F)(F)F)cc7)no6)CC5)c(O)c4c3C2=O)NC(=O)C(C)=CC=CC(C)C(O)C(C)C(O)C(C)C(OC(C)=O)C1C (centres unmarked) [Compound 7]	1 µg/mL (≈ 0.967 µM)	0.12 µg/mL (≈ 0.116 µM)	0.25 µg/mL (≈ 0.242 µM)	0.5 µg/mL (≈ 0.484 µM)
